“And” between values parts separate entries of the source, which are not always exact repeats. Equal values may be shown once.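 Results reflect a 48-hour exposure of cells in 96-well plates to compound at five concentrations. Here, GI50 denotes the concentration required for 50% inhibition of growth.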 The source made the active and inactive calls. No stated cut-off is given here; in the data, active = GI50 up to about 1.1 µM and inactive = higher.
Legend:
Assay in all cases: DTP human tumour cell line panel, 48 h
NCI-H522 = test system: NCI-H522
SK-MEL-2 = test system: SK-MEL-2
UACC-257 = test system: UACC-257
T47D = test system: T47D
UO-31 = test system: UO-31
DU-145 = test system: DU-145
OVCAR-3 = test system: OVCAR-3
MDA-MB-435 = test system: MDA-MB-435
MDA-N = test system: MDA-N
NCI/ADR-RES = test system: NCI/ADR-RES
OVCAR-4 = test system: OVCAR-4
UACC-62 = test system: UACC-62
A549 = test system: A549
ACHN = test system: ACHN
786-0 = test system: 786-0
SW-620 = test system: SW-620
RXF 393 = test system: RXF 393
LOX IMVI = test system: LOX IMVI
HT-29 = test system: HT-29
SR = test system: SR

Row | Structure (SMILES) | GI50 (NCI-H522) | GI50 (SK-MEL-2) | GI50 (UACC-257) | GI50 (T47D) | GI50 (UO-31) | GI50 (DU-145) | GI50 (OVCAR-3) | GI50 (MDA-MB-435) | GI50 (MDA-N) | GI50 (NCI/ADR-RES) | GI50 (OVCAR-4) | GI50 (UACC-62) | GI50 (A549) | GI50 (ACHN) | GI50 (786-0) | GI50 (SW-620) | GI50 (RXF 393) | GI50 (LOX IMVI) | GI50 (HT-29) | GI50 (SR)
1 | O=C(Nc1ccc2[nH]c(C(=O)N3CC(CCl)c4c3cc([N+](=O)[O-])c3ccccc43)cc2c1)Nc1ccc2[nH]c(C(=O)N3CC(CCl)c4c3cc([N+](=O)[O-])c3ccccc43)cc2c1 (stereo unspecified) | > 100 µM (inactive) | > 100 µM (inactive) | > 100 µM (inactive) | > 100 µM (inactive) | 17.9 µM (inactive) | > 100 µM (inactive) | > 100 µM (inactive) | > 100 µM (inactive) | > 100 µM (inactive) | > 100 µM (inactive) | > 100 µM (inactive) | > 100 µM (inactive) | > 100 µM (inactive) | > 100 µM (inactive) | > 100 µM (inactive) | – | – | – | – | –
2 | C[C@@H]1C(=O)O[C@H]1[C@H](O)CO | – | > 100 µM (inactive) | > 100 µM (inactive) | > 100 µM (inactive) | > 10 µM (inactive) | > 100 µM (inactive) | > 100 µM (inactive) | > 100 µM (inactive) | > 100 µM (inactive) | > 100 µM (inactive) | > 100 µM (inactive) | > 100 µM (inactive) | > 100 µM (inactive) | > 100 µM (inactive) | > 100 µM (inactive) | > 100 µM (inactive) | > 100 µM (inactive) | > 100 µM (inactive) | – | –
3 | N/C(=N\c1ccc(Cl)cc1)NS(=O)(=O)c1ccc(S(=O)(=O)c2ccccc2)s1 | 14.5 µM (inactive) | 14.1 µM (inactive) | 14.8 µM (inactive) | 17 µM (inactive) | 16.6 µM (inactive) | 21.5 µM (inactive) | 25.4 µM (inactive) | – | 18.5 µM (inactive) | 18 µM (inactive) | 17.5 µM (inactive) | 11.3 µM (inactive) | 23.9 µM (inactive) | 20.9 µM (inactive) | 19.9 µM (inactive) | 19 µM (inactive) | 53.8 µM (inactive) | 16.3 µM (inactive) | 21.7 µM (inactive) | 24.8 µM (inactive)
4 | CN(C)c1ccc(/C=C2\N=C(c3ccccc3)N(c3nc4c(Cl)cc(Cl)cc4s3)C2=O)cc1 | – | 49.9 µM (inactive) | 47 µM (inactive) | 52.5 µM (inactive) | 43.8 µM (inactive) | > 100 µM (inactive) | 64.4 µM (inactive) | 21.2 µM (inactive) | 22.9 µM (inactive) | 43.7 µM (inactive) | 39.2 µM (inactive) | 33.1 µM (inactive) | 49.9 µM (inactive) | 59 µM (inactive) | 77.1 µM (inactive) | 46.6 µM (inactive) | – | 38.3 µM (inactive) | 38.4 µM (inactive) | 32.1 µM (inactive)
5 | O=C1C(=Cc2ccccc2O)N=C(c2ccccc2)N1n1c(-c2ccccc2)nc2ccccc2c1=O | 33.1 µM (inactive) | – | 29.9 µM (inactive) | 26.2 µM (inactive) | 27.5 µM (inactive) | 35.5 µM (inactive) | – | 36.8 µM (inactive) | 32.4 µM (inactive) | – | – | 33.7 µM (inactive) | 33.6 µM (inactive) | 29.5 µM (inactive) | 42.1 µM (inactive) | 45.8 µM (inactive) | – | 41.7 µM (inactive) | 37.2 µM (inactive) | 32.9 µM (inactive)
6 | CCOC(=O)Cn1c(C)nc2nn(Cc3ccccc3)cc2c1=O | – | > 100 µM (inactive) | – | > 100 µM (inactive) | > 100 µM (inactive) | > 100 µM (inactive) | > 100 µM (inactive) | > 100 µM (inactive) | > 100 µM (inactive) | > 100 µM (inactive) | – | > 100 µM (inactive) | > 100 µM (inactive) | > 100 µM (inactive) | > 100 µM (inactive) | > 100 µM (inactive) | > 100 µM (inactive) | – | > 100 µM (inactive) | –
7 | O=C1CCC(=O)N1CNc1ccc2c(c1)S(=O)(=O)c1ccccc1O2 | > 100 µM (inactive) | > 100 µM (inactive) | > 100 µM (inactive) | > 100 µM (inactive) | > 100 µM (inactive) | > 100 µM (inactive) | > 100 µM (inactive) | > 100 µM (inactive) | > 100 µM (inactive) | > 100 µM (inactive) | > 100 µM (inactive) | > 100 µM (inactive) | > 100 µM (inactive) | > 100 µM (inactive) | > 100 µM (inactive) | > 100 µM (inactive) | > 100 µM (inactive) | > 100 µM (inactive) | > 100 µM (inactive) | –
8 | COc1cc(C2SC(=N)Nc3c2c(C)nn3C(=O)Cc2ccccc2)cc(OC)c1OC (stereo unspecified) | > 100 µM (inactive) | – | > 100 µM (inactive) | > 100 µM (inactive) | > 100 µM (inactive) | > 100 µM (inactive) | – | > 100 µM (inactive) | > 100 µM (inactive) | – | – | > 100 µM (inactive) | > 100 µM (inactive) | > 100 µM (inactive) | > 100 µM (inactive) | > 100 µM (inactive) | – | > 100 µM (inactive) | > 100 µM (inactive) | > 100 µM (inactive)
9 | O=C1CC2c3ccccc3CCC2c2ccccc21 (stereo unspecified) | 23.3 µM (inactive) | 16.8 µM (inactive) | 26.2 µM (inactive) | 42.9 µM (inactive) | 15.2 µM (inactive) | 57.8 µM (inactive) | 13.3 µM (inactive) | 19.3 µM (inactive) | 6.64 µM (inactive) | – | > 10 µM (inactive) | 20 µM (inactive) | 27.5 µM (inactive) | 28.2 µM (inactive) | 31.3 µM (inactive) | 26.5 µM (inactive) | – | 15.8 µM (inactive) | 13.3 µM (inactive) | 46.7 µM (inactive)
10 | O=S(=O)(O)c1cc(O)c(/N=N\C2S(=O)(=O)OCCOS2(=O)=O)c2ccccc12 | > 100 µM (inactive) | > 100 µM (inactive) | > 100 µM (inactive) | > 100 µM (inactive) | > 100 µM (inactive) | > 100 µM (inactive) | > 100 µM (inactive) | > 100 µM (inactive) | > 100 µM (inactive) | > 100 µM (inactive) | > 100 µM (inactive) | 91 µM (inactive) | > 100 µM (inactive) | 46 µM (inactive) | 61.9 µM (inactive) | > 100 µM (inactive) | > 100 µM (inactive) | 61.9 µM (inactive) | > 100 µM (inactive) | –
11 | CC1N=C(c2ccccc2)OC1=O (stereo unspecified) | > 100 µM (inactive) | > 100 µM (inactive) | > 100 µM (inactive) | > 100 µM (inactive) | > 100 µM (inactive) | > 100 µM (inactive) | > 100 µM (inactive) | > 100 µM (inactive) | > 100 µM (inactive) | > 100 µM (inactive) | > 100 µM (inactive) | > 100 µM (inactive) | > 100 µM (inactive) | > 100 µM (inactive) | > 100 µM (inactive) | > 100 µM (inactive) | – | > 100 µM (inactive) | > 100 µM (inactive) | –
12 | NNc1ncnc2cccc(Cl)c12 | > 100 µM (inactive) | – | > 100 µM (inactive) | > 100 µM (inactive) | > 100 µM (inactive) | > 100 µM (inactive) | > 100 µM (inactive) | – | > 100 µM (inactive) | > 100 µM (inactive) | > 100 µM (inactive) | > 100 µM (inactive) | > 100 µM (inactive) | > 100 µM (inactive) | > 100 µM (inactive) | > 100 µM (inactive) | > 100 µM (inactive) | – | > 100 µM (inactive) | > 100 µM (inactive)
13 | c1ccc(-c2cc(-c3cc(-c4ccccc4)n(-c4ccccc4)n3)nn2-c2ccccc2)cc1 | > 100 µM (inactive) | > 100 µM (inactive) | > 100 µM (inactive) | > 100 µM (inactive) | > 100 µM (inactive) | > 100 µM (inactive) | > 100 µM (inactive) | > 100 µM (inactive) | > 100 µM (inactive) | > 100 µM (inactive) | 94.8 µM (inactive) | > 100 µM (inactive) | > 100 µM (inactive) | > 100 µM (inactive) | 78.5 µM (inactive) | – | > 100 µM (inactive) | – | > 100 µM (inactive) | –
14 | CC1=NC(=Cc2ccc(Cl)cc2)C(=O)N1n1c(-c2ccccc2)nc2ccccc2c1=O | 6.92 µM (inactive) | – | 25 µM (inactive) | 25.4 µM (inactive) | 37.2 µM (inactive) | 38.1 µM (inactive) | – | 43.4 µM (inactive) | 35.1 µM (inactive) | – | – | 33.2 µM (inactive) | 39.8 µM (inactive) | 22.2 µM (inactive) | 40.6 µM (inactive) | 57.1 µM (inactive) | – | 38.5 µM (inactive) | 37 µM (inactive) | 33.5 µM (inactive)
15 | C[C@H]1CCC/C=C/[C@@H]2C[C@H](O)C[C@H]2[C@H](O)/C=C/C(=O)O1 [BREFELDIN A] | – | 47.4 nM (active) and 30.6 nM (active) | 27.5 nM (active) and 16 nM (active) | 124 nM (active) and 71.5 nM (active) | 23.2 nM (active) and < 18.3 nM (active) | – | < 18.2 nM (active) and 30.5 nM (active) | – | 40.6 nM (active) and 42.4 nM (active) | < 14.9 nM (active) and 27.4 nM (active) | < 14.7 nM (active) and 24.7 nM (active) | < 14.2 nM (active) and 18.2 nM (active) | – | – | < 10 nM (active) and 13.2 nM (active) | 32.7 nM (active) and < 17.4 nM (active) | 14.4 nM (active) and 13.4 nM (active) | 13.2 nM (active) and 12.3 nM (active) | < 10 nM (active) and 15.8 nM (active) | –

From ChEMBL document CHEMBL1201862, “PubChem BioAssay data set” (2004)
